In PubChem BioAssay AID1963846 (Molecular Pharmacology Branch, DTP, NCI, 2024):

Test system: 454973-116-R2-J3-PDC complex spheroid viability
Assay: Anticancer human tumor 454973-116-R2-J3-PDC patient-derived pancreatic carcinoma cell line growth inhibition [POLQ]
Conditions: for IC50: curve of first compound; for viability, T/C: stronger effect = lower value
Method in brief: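 Three-cell-type spheroids modelling solid tumor plus stroma served as the readout system; POL inhibitors were tested individually and in combination, concentration ranges set by clinical Cmax where known.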

[1] = second compound 0.0316 µM, first compound 0.00316 µM
[2] = second compound 0.0316 µM, first compound 0.01 µM
[3] = second compound 0.0316 µM, first compound 0.0316 µM
[4] = second compound 0.0316 µM, first compound 0.1 µM
[5] = second compound 0.1 µM, first compound 0.00316 µM
[6] = second compound 0.1 µM, first compound 0.01 µM
[7] = second compound 0.1 µM, first compound 0.0316 µM
[8] = second compound 0.1 µM, first compound 0.1 µM
[9] = second compound 0.316 µM, first compound 0.00316 µM
[10] = second compound 0.316 µM, first compound 0.01 µM
[11] = second compound 0.316 µM, first compound 0.0316 µM
[12] = second compound 0.316 µM, first compound 0.1 µM
[13] = second compound 1 µM, first compound 0.00316 µM
[14] = second compound 1 µM, first compound 0.01 µM
[15] = second compound 1 µM, first compound 0.0316 µM
[16] = second compound 1 µM, first compound 0.1 µM
[17] = second compound 3.16 µM, first compound 0.00316 µM
[18] = second compound 3.16 µM, first compound 0.01 µM
[19] = second compound 3.16 µM, first compound 0.0316 µM
[20] = second compound 3.16 µM, first compound 0.1 µM
[21] = second compound 10 µM, first compound 0.00316 µM
[22] = second compound 10 µM, first compound 0.01 µM
[23] = second compound 10 µM, first compound 0.0316 µM
[24] = second compound 10 µM, first compound 0.1 µM
[25] = second compound 0.0316 µM, first compound 0.316 µM
[26] = second compound 0.0316 µM, first compound 1 µM
[27] = second compound 0.1 µM, first compound 0.316 µM
[28] = second compound 0.1 µM, first compound 1 µM
[29] = second compound 0.316 µM, first compound 0.316 µM
[30] = second compound 0.316 µM, first compound 1 µM
[31] = second compound 1 µM, first compound 0.316 µM
[32] = second compound 1 µM, first compound 1 µM
[33] = second compound 3.16 µM, first compound 0.316 µM
[34] = second compound 3.16 µM, first compound 1 µM
[35] = second compound 10 µM, first compound 0.316 µM
[36] = second compound 10 µM, first compound 1 µM
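Also: spheroids exposed to drugs for seven days before measurement.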
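For viability, T/C in this document: percent viability relative to DMSO vehicle control wells taken as 100%.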

Compound CC[C@@]1(O)C(=O)OCc2c1cc1n(c2=O)Cc2cc3c(CN(C)C)c(O)ccc3nc2-1 + COC1C(OC(N)=O)C(O)C(Oc2ccc3c(O)c(NC(=O)c4ccc(O)c(CC=C(C)C)c4)c(=O)oc3c2C)OC1(C)C has an IC50 (second compound 0.0316 µM) of 20 nM, an IC50 (second compound 0.1 µM) of 17.8 nM and an IC50 (second compound 0.316 µM) of 18.4 nM. For the same compound, the IC50 (second compound 1 µM) was 18.9 nM, the IC50 (second compound 3.16 µM) was 18.3 nM and the IC50 (second compound 10 µM) was 17.5 nM. The viability, T/C (second compound 0.0316 µM, first compound 0.000316 µM) was 113%, the viability, T/C (second compound 0.0316 µM, first compound 0.001 µM) was 106% and the viability, T/C [1] was 105%. It also gave a viability, T/C [2] of 86.8%, a viability, T/C [3] of 25.5% and a viability, T/C [4] of 14.9%. For the same compound, the viability, T/C (second compound 0.1 µM, first compound 0.000316 µM) was 106%, the viability, T/C (second compound 0.1 µM, first compound 0.001 µM) was 106% and the viability, T/C [5] was 103%. For the same compound, the viability, T/C [6] was 82.6%, the viability, T/C [7] was 17.1% and the viability, T/C [8] was 16.3%. For the same compound, the viability, T/C (second compound 0.316 µM, first compound 0.000316 µM) was 109%, the viability, T/C (second compound 0.316 µM, first compound 0.001 µM) was 100% and the viability, T/C [9] was 108%. For the same compound, the viability, T/C [10] was 88.9%, the viability, T/C [11] was 15.8% and the viability, T/C [12] was 13.8%. It also gave a viability, T/C (second compound 1 µM, first compound 0.000316 µM) of 113%, a viability, T/C (second compound 1 µM, first compound 0.001 µM) of 101% and a viability, T/C [13] of 108%. It also gave a viability, T/C [14] of 91.1%, a viability, T/C [15] of 15.8% and a viability, T/C [16] of 18.1%. It also gave a viability, T/C (second compound 3.16 µM, first compound 0.000316 µM) of 110%, a viability, T/C (second compound 3.16 µM, first compound 0.001 µM) of 113% and a viability, T/C [17] of 107%. For the same compound, the viability, T/C [18] was 79.6%, the viability, T/C [19] was 22.8% and the viability, T/C [20] was 19%. It also gave a viability, T/C (second compound 10 µM, first compound 0.000316 µM) of 109%, a viability, T/C (second compound 10 µM, first compound 0.001 µM) of 104% and a viability, T/C [21] of 99.9%. The viability, T/C [22] was 76.5%, the viability, T/C [23] was 21.4% and the viability, T/C [24] was 20.3%.
For CCc1c2c(nc3ccc(O)cc13)-c1cc3c(c(=O)n1C2)COC(=O)[C@]3(O)CC + COC1C(OC(N)=O)C(O)C(Oc2ccc3c(O)c(NC(=O)c4ccc(O)c(CC=C(C)C)c4)c(=O)oc3c2C)OC1(C)C, the IC50 (second compound 0.0316 µM) was less than 3.16 nM, the IC50 (second compound 0.1 µM) was less than 3.16 nM and the IC50 (second compound 0.316 µM) was less than 3.16 nM. For the same compound, the IC50 (second compound 1 µM) was less than 3.16 nM, the IC50 (second compound 3.16 µM) was less than 3.16 nM and the IC50 (second compound 10 µM) was less than 3.16 nM. It also gave a viability, T/C [1] of 37.3%, a viability, T/C [2] of 16.3% and a viability, T/C [3] of 8.76%. For the same compound, the viability, T/C [4] was 4.34%, the viability, T/C [25] was 4.57% and the viability, T/C [26] was 0.92%. It also gave a viability, T/C [5] of 38.9%, a viability, T/C [6] of 13.7% and a viability, T/C [7] of 10.5%. For the same compound, the viability, T/C [8] was 6.92%, the viability, T/C [27] was 2.75% and the viability, T/C [28] was 1.04%. For the same compound, the viability, T/C [9] was 37.1%, the viability, T/C [10] was 15.8% and the viability, T/C [11] was 14.7%. The viability, T/C [12] was 4.68%, the viability, T/C [29] was 2.98% and the viability, T/C [30] was 1.19%. It also gave a viability, T/C [13] of 34.1%, a viability, T/C [14] of 14.2% and a viability, T/C [15] of 12.5%. The viability, T/C [16] was 6.32%, the viability, T/C [31] was 3.96% and the viability, T/C [32] was 3.08%. For the same compound, the viability, T/C [17] was 31.2%, the viability, T/C [18] was 13.9% and the viability, T/C [19] was 9.37%. For the same compound, the viability, T/C [20] was 4.13%, the viability, T/C [33] was 2.03% and the viability, T/C [34] was 2.74%. For the same compound, the viability, T/C [21] was 29.1%, the viability, T/C [22] was 15.1% and the viability, T/C [23] was 11.4%. For the same compound, the viability, T/C [24] was 6.62%, the viability, T/C [35] was 3.37% and the viability, T/C [36] was 1.53%.
For CNCc1ccc(-c2[nH]c3cc(F)cc4c3c2CCNC4=O)cc1 + COC1C(OC(N)=O)C(O)C(Oc2ccc3c(O)c(NC(=O)c4ccc(O)c(CC=C(C)C)c4)c(=O)oc3c2C)OC1(C)C, the IC50 (second compound 0.0316 µM) was greater than 10000 nM, the IC50 (second compound 0.1 µM) was greater than 10000 nM and the IC50 (second compound 0.316 µM) was greater than 10000 nM. It also gave an IC50 (second compound 1 µM) greater than 10000 nM, an IC50 (second compound 3.16 µM) greater than 10000 nM and an IC50 (second compound 10 µM) greater than 10000 nM. It also gave a viability, T/C [3] of 99.4%, a viability, T/C [4] of 115% and a viability, T/C [25] of 98.6%. The viability, T/C [26] was 106%, the viability, T/C (second compound 0.0316 µM, first compound 3.16 µM) was 104% and the viability, T/C (second compound 0.0316 µM, first compound 10 µM) was 92%. The viability, T/C [7] was 98.2%, the viability, T/C [8] was 103% and the viability, T/C [27] was 103%. The viability, T/C [28] was 104%, the viability, T/C (second compound 0.1 µM, first compound 3.16 µM) was 106% and the viability, T/C (second compound 0.1 µM, first compound 10 µM) was 89.1%. For the same compound, the viability, T/C [11] was 102%, the viability, T/C [12] was 113% and the viability, T/C [29] was 100%. For the same compound, the viability, T/C [30] was 105%, the viability, T/C (second compound 0.316 µM, first compound 3.16 µM) was 95.8% and the viability, T/C (second compound 0.316 µM, first compound 10 µM) was 87.8%. The viability, T/C [15] was 106%, the viability, T/C [16] was 99% and the viability, T/C [31] was 101%. The viability, T/C [32] was 98.7%, the viability, T/C (second compound 1 µM, first compound 3.16 µM) was 97.8% and the viability, T/C (second compound 1 µM, first compound 10 µM) was 88%. The viability, T/C [19] was 112%, the viability, T/C [20] was 104% and the viability, T/C [33] was 101%. For the same compound, the viability, T/C [34] was 98.8%, the viability, T/C (second compound 3.16 µM, first compound 3.16 µM) was 99.3% and the viability, T/C (second compound 3.16 µM, first compound 10 µM) was 87.5%. The viability, T/C [23] was 103%, the viability, T/C [24] was 97.3% and the viability, T/C [35] was 92.8%. The viability, T/C [36] was 98.3%, the viability, T/C (second compound 10 µM, first compound 3.16 µM) was 92% and the viability, T/C (second compound 10 µM, first compound 10 µM) was 85.1%.
